Where “and” joins values, the source holds several entries; their conditions need not be identical. Identical values can stand only once. Like-named read-outs stand apart in the source and are kept apart here. One block for each molecule: values may come before it.
Tests used:
[1] = target: T1, recombinant human SAA1 (hSAA1) (Homo sapiens, UniProt P0DJI8, D78N/H89R); test: Fluorometric retinoid binding assay, hSAA1; conditions: for Kd: PBS, 0.5 μM protein
T1 construct: corresponding to human apo-SAA1α except for the presence of an N-terminal methionine; purchased PeproTech (Rocky Hill, NJ)
T1 sequence (P0DJI8 19-122 D78N/H89R): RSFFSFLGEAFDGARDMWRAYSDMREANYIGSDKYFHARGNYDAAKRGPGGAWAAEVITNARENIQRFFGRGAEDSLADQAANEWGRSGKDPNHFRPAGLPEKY
Procedure: (§1) Retinoic acid lacks intrinsic fluorescence but can quench inherent protein fluorescence due to energy transfer from tryptophan residues ([Cogan et al., 1976]). We therefore measured retinoic acid binding using a modified fluorescence assay that monitored quenching of protein fluorescence (Figure 2C).
(§2) Steady state fluorescence was measured using a QuantaMaster 40 spectrofluorometer (Photon Technology International, Edison, NJ) and FelixGX software program. […] For retinoic acid and other retinoids, samples were excited at 296 nm and tryptophan quenching was monitored by emission at 334 nm. Experiments on mSAA1 and mSAA3 were done in 25 mM Tris pH 8.0, 100 mM NaCl, and 4 mM decyl maltopyranoside (DM). Experiments with hSAA1, human ApoA1, and human transferrin were conducted in PBS. […] All assays were done using a protein concentration of 0.5 μM.

mouse SAA1 (mSAA1) = target: T2, mouse SAA1 (mSAA1) (Mus musculus, UniProt P05366); test: Fluorometric retinoid binding assay, mSAA1; conditions: for binding (in words): tryptophan fluorescence quenching, excitation 296 nm, emission 334 nm
T2 construct: hexa-histidine tag followed by thrombin cleavage site (N, cleaved yes); made in house; host or cells: Escherichia coli BL21-CodonPlus (DE3)-RILP
T2 sequence (P05366 20-122): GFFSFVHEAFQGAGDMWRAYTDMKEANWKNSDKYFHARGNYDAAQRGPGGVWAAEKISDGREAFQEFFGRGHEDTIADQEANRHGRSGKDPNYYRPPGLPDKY
Procedure: as §1, §2

hSAA1, mSAA1, and mSAA3 = test: Cholesterol competition of retinol binding to SAAs; conditions: 10 μM cholesterol, saturating retinol, fluorescence quenching at 334 nm
Source text: Figure 2. […] Plots are representative of five independent experiments. (C) Retinoic acid lacks intrinsic fluorescence, but can quench intrinsic protein fluorescence due to energy transfer from tryptophan residues ([Cogan et al., 1976]). All-trans-retinoic acid was titrated into mSAA3 and fluorescence quenching was monitored following excitation at 296 nm. The chemical structure of retinoic acid is shown. (D) All-trans-retinoic acid was titrated into hSAA1, mSAA1, mSAA3, hTfr, and ApoA1. Fluorescence emission was monitored at 334 nm with excitation at 296 nm as in (C). Plots are representative of three independent experiments. […] Additional ligand binding measurements are provided in Figure 2—figure supplements 1 and 2. DOI: http://dx.doi.org/10.7554/eLife.03206.007 Figure 2—figure supplement 1. […] DOI: http://dx.doi.org/10.7554/eLife.03206.008 [drawing 3] Figure 2—figure supplement 2. Additional ligand binding studies on human and mouse SAAs. […] Plots are representative of three independent experiments.
Steady state fluorescence was measured using a QuantaMaster 40 spectrofluorometer (Photon Technology International, Edison, NJ) and FelixGX software program. […] For retinoic acid and other retinoids, samples were excited at 296 nm and tryptophan quenching was monitored by emission at 334 nm. […]

mouse SAA3 (mSAA3) = target: T3, mouse SAA3 (mSAA3) (Mus musculus, UniProt P04918); test: Fluorometric retinoid binding assay, mSAA3
T3 construct: hexa-histidine tag followed by thrombin cleavage site (N, cleaved yes); made in house; host or cells: Escherichia coli BL21-CodonPlus (DE3)-RILP
T3 sequence (P04918 19-122): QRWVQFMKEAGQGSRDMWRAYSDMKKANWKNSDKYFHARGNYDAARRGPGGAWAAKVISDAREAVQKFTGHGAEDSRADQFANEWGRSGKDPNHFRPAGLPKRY
Procedure: as §1, §2

[2] = target: human retinol binding protein 4 (hRBP4) (Homo sapiens, UniProt P02753); test: Fluorescence binding assay, hRBP4; conditions: fluorescence quenching assay as in Figure 2
[3] = tested on: SAA1 and 2 expression in HepG2 cells; test: SAA expression in HepG2 cells by Q-PCR; type: cell-based, human
Source text: (§3) Figure 1. SAA expression requires dietary vitamin A. (A) Mice were maintained on a normal (Vit. A+) diet or a vitamin A-deficient (Vit. A−) diet as in Figure 1—figure supplement 1. N = 3–5 mice per condition. (B) Ileal sections were stained with anti-SAA antibody (‘Materials and methods’) and anti-rabbit IgG-Cy3 (red), and counterstained with DAPI (blue). Scale bar = 50 µm. (C) Q-PCR determination of Saa expression levels in livers of mice on a normal or vitamin A-deficient diet. N = 5 mice/condition. (D) Liver sections were stained with anti-SAA antibody and anti-rabbit IgG-Cy3 (red), and counterstained with DAPI (blue). Scale bars = 50 µm. (E and F) Analysis of SAA expression in HepG2 cells. […] SAA expression was determined by Q-PCR. N = 3 independent experiments. Mean ± SEM is plotted. nd, not detected. *p < 0.05; **p < 0.01; ***p < 0.001. p values were determined by two-tailed Student's t test. DOI: http://dx.doi.org/10.7554/eLife.03206.004 Figure 1—figure supplement 1. […] Saa transcript abundance was determined by Q-PCR. […] Saa transcript abundance was determined by Q-PCR. […] Mean ± SEM is plotted. *p < 0.05, **p < 0.01. p values were determined by the Mann–Whitney test in (A) and two-tailed Student's t test in (B). […]

[4] = tested on: liver Saa1 and Saa2 expression; test: In vivo retinoic acid reconstitution, liver Saa expression by Q-PCR; parameters: species or system mouse; conditions: vitamin A-depleted mice, intraperitoneal, daily for three days
Source text: as §3

mSAA3-W71A = target: T4, mSAA3-W71A (Mus musculus, UniProt P04918, W71A); test: Retinol binding assay, mSAA3-W71A mutant
T4 construct: hexa-histidine tag followed by thrombin cleavage site (N, cleaved yes); made in house; host or cells: Escherichia coli BL21-CodonPlus (DE3)-RILP
T4 sequence (P04918 19-122 W71A): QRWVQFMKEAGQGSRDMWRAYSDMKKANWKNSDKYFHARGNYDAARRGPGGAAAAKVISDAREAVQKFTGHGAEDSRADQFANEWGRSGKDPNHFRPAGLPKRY
Procedure: The mSAA3-W71A mutant was generated using the QuickChange II site-directed mutagenesis kit (Agilent Technologies, Santa Clara, CA).
as §2

[5] = tested on: intestinal Saa1 and Saa2 expression; test: Saa expression in small intestinal explants by Q-PCR; type: cell-based, mouse; conditions: 1 µM retinol in 0.1% DMSO, ileum explants, 6 hr
[6] = target: the molecule itself; test: crystal structure; selenomethionyl mSAA3, space group P6(2), two subunits in the asymmetric unit, SAD phasing, 2 Å; 75-80% MPD, 0.1 M sodium acetate pH 4.5, 20°C; quaternary structure by PDBePISA
[7] = tryptophan fluorescence quenching, excitation 296 nm, emission 334 nm
[8] = tryptophan fluorescence quenching, excitation 296 nm, emission 334 nm, 0.5 μM protein

Molecule: CC(=O)OC/C=C(C)/C=C/C=C(C)/C=C/C1=C(C)CCCC1(C)C [retinyl acetate]
- Kd [1, 7]: 0.497 µM and 0.347 µM
- binding (in words) (mouse SAA1 (mSAA1)): weak binding

Molecule: CC(C)CCC[C@@H](C)[C@H]1CC[C@H]2[C@@H]3CC=C4C[C@@H](O)CC[C@]4(C)[C@H]3CC[C@]12C [cholesterol]
- competitive inhibition of retinol binding (hSAA1, mSAA1, and mSAA3): unable to competitively inhibit retinol binding

Molecule: CC1=C(/C=C/C(C)=C/C=C/C(C)=C/C(=O)O)C(C)(C)CCC1 [retinoic acid]
- Kd [1, 7]: 0.268 µM
- binding (in words) (mouse SAA1 (mSAA1)): weak binding
- Kd (mouse SAA3 (mSAA3); [8]): 0.224 µM
- Kd [2]: 0.139 ± 0.04 µM
- expression of SAA1 and 2 ([3]; 100 nM retinoic acid in the presence of IL-1β and IL-6, retinoid-free medium): enhanced expression
- expression of liver Saa1 and Saa2 [4]: elevated expression

Molecule: CC1=C(/C=C/C(C)=C/C=C/C(C)=C/CO)C(C)(C)CCC1 [retinol]
- Kd ([1]; all-trans-retinol titration, retinol fluorescence, excitation 348 nm, emission 460 nm): 0.259 µM
- Kd (mouse SAA1 (mSAA1)): 0.169 µM
- Kd (mouse SAA3 (mSAA3)): 0.145 µM
- Kd (mSAA3-W71A): 0.496 ± 0.127 µM
- expression of SAA1 and 2 ([3]; 1 μM retinol in the presence of IL-1β and IL-6, retinoid-free medium): enhanced expression
- expression of intestinal Saa1 and Saa2 [5]: elevated expression

B1: mouse serum amyloid A3 (mSAA3) (natural protein, UniProt P04918 19-122, looked up)
chain: QRWVQFMKEAGQGSRDMWRAYSDMKKANWKNSDKYFHARGNYDAARRGPGGAWAAKVISDAREAVQKFTGHGAEDSRADQFANEWGRSGKDPNHFRPAGLPKRY
notes: cloned into pET28(a)+ between NdeI and BamHI; monomer is 12.2 kDa; The crystal used for the structure was selenomethionyl-derivatised (grown in defined media with selenomethionine); SEC and cross-linking used the native protein; A few vector residues probably remain at the N-terminus after thrombin cleavage (surmise); also called mouse SAA3; not shown: His6, N-terminal, cleaved
- stoichiometry N [6]: 4

Next, values leading:

- Kd [1, 7]: 0.347 µM and 0.497 µM
- binding (in words) (mouse SAA1 (mSAA1)): weak binding
- Kd (mouse SAA3 (mSAA3); [8]): 0.159 µM
Molecule: CC1=C(/C=C/C(C)=C/C=C/C(C)=C/C=C/C=C(C)/C=C/C=C(C)/C=C/C2=C(C)CCCC2(C)C)C(C)(C)CCC1 [β-carotene]

- binding (in words) [1, 7]: bound weakly
- binding (in words) (mouse SAA1 (mSAA1)): bound weakly
- binding (in words) (mouse SAA3 (mSAA3); [7]): bound weakly
Molecule: CCCCCCCCCCCCCCCC(=O)OC/C=C(C)/C=C/C=C(C)/C=C/C1=C(C)CCCC1(C)C [retinyl palmitate]

From publication PMC4129439 (eLife, 2014)
